Experimental findings from PubChem BioAssay AID1259411 (Chemical Carcinogenesis Research Information System (CCRIS), 2018) are described below.

Each structure is given as a SMILES string. The source made the active and inactive calls. No rule for the calls is given here.

For the series, the system named is rodent carcinogenicity bioassays, tumor incidence. Description: CCRIS carcinogenicity studies. The method in brief: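 Archive of carcinogenicity, mutagenicity, tumor promotion and tumor inhibition results drawn from journals, NCI reports and other sources, expert-reviewed; covers 1985-2011 and is no longer updated.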

In the case of `CC(=O)OC[C@H]1O[C@H](O[C@]2(COC(C)=O)O[C@H](COC(=O)C(C)C)[C@@H](OC(=O)C(C)C)[C@@H]2OC(=O)C(C)C)[C@H](OC(=O)C(C)C)[C@@H](OC(=O)C(C)C)[C@@H]1OC(=O)C(C)C`, the carcinogen call was “inactive; negative” (Species: MONKEY, Strain/Sex: CYNOMOLGUS/FEMALE, Route: GAVAGE, Dose: 0, 500, 1450, 2400 MG/KG BW 1X/D FOR 52 WK (STUDY DURATION: 52 WK), Dose: 0, 500, 1450, 2400 MG/KG BW 1X/D FOR 52 WK (STUDY DURATION: 52 WK)); “inactive; negative” (Species: MONKEY, Strain/Sex: CYNOMOLGUS/MALE, Route: GAVAGE, Dose: 0, 500, 1450, 2400 MG/KG BW 1X/D FOR 52 WK (STUDY DURATION: 52 WK), Dose: 0, 500, 1450, 2400 MG/KG BW 1X/D FOR 52 WK (STUDY DURATION: 52 WK)); “inactive; negative” (Species: MOUSE, Strain/Sex: B6C3F1/FEMALE, Route: ORAL, Dose: 0, 1.25, 2.5, 5 G/KG BW IN DIET FOR 2 YR (STUDY DURATION: 2 YR), Dose: 0, 1.25, 2.5, 5 G/KG BW IN DIET FOR 2 YR (STUDY DURATION: 2 YR)); “inactive; negative” (Species: MOUSE, Strain/Sex: B6C3F1/MALE, Route: ORAL, Dose: 0, 1.25, 2.5, 5 G/KG BW IN DIET FOR 2 YR (STUDY DURATION: 2 YR), Dose: 0, 1.25, 2.5, 5 G/KG BW IN DIET FOR 2 YR (STUDY DURATION: 2 YR)); “inactive; negative” (Species: RAT, Strain/Sex: F344/FEMALE, Route: ORAL, Dose: 0 0.5, 1, 2 G/KG BE IN DIET FOR 2 YR (STUDY DURATION: 2 YR), Dose: 0 0.5, 1, 2 G/KG BE IN DIET FOR 2 YR (STUDY DURATION: 2 YR)); “inactive; negative” (Species: RAT, Strain/Sex: F344/MALE, Route: ORAL, Dose: 0, 0.5, 1, 2 G/KG BW IN DIET FOR 2 YR (STUDY DURATION: 2 YR), Dose: 0, 0.5, 1, 2 G/KG BW IN DIET FOR 2 YR (STUDY DURATION: 2 YR)).

In the case of `OCCCl`, the carcinogen call runs as follows: (Species: MOUSE, Strain/Sex: CD-1/FEMALE, Route: DERMAL, Dose: 0, 7.5, 15 MG/ANIMAL IN 70% ETHANOL IN WATER 5 D/WK FOR 104 WK, Dose: 0, 7.5, 15 MG/ANIMAL IN 70% ETHANOL IN WATER 5 D/WK FOR 104 WK) “inactive; negative”; (Species: MOUSE, Strain/Sex: CD-1/MALE, Route: DERMAL, Dose: 0, 7.5, 15 MG/ANIMAL IN 70% ETHANOL IN WATER 5 D/WK FOR 104 WK, Dose: 0, 7.5, 15 MG/ANIMAL IN 70% ETHANOL IN WATER 5 D/WK FOR 104 WK) “inactive; negative”; (Species: RAT, Strain/Sex: F344/FEMALE, Route: DERMAL, Dose: 0, 50, 100 MG/KG IN 70% ETHANOL IN WATER 5 D/WK FOR 103 WK, Dose: 0, 50, 100 MG/KG IN 70% ETHANOL IN WATER 5 D/WK FOR 103 WK) “inactive; negative”; (Species: RAT, Strain/Sex: F344/MALE, Route: DERMAL, Dose: 0, 50, 100 MG/KG IN 70% ETHANOL IN WATER 5 D/WK FOR 103 WK, Dose: 0, 50, 100 MG/KG IN 70% ETHANOL IN WATER 5 D/WK FOR 103 WK) “inactive; negative”.

For `C[C@]12CC[C@@H]3c4ccc(O)cc4CC[C@H]3[C@@H]1CC[C@@H]2O`, the carcinogen call was “active; positive” (Species: GUINEA PIG, Route: SUBCUTANEOUS IMPLANT, Tumor Site: Type of Lesion: UTERUS); “active; positive” (Species: HAMSTER, Route: SUBCUTANEOUS IMPLANT, Tumor Site: Type of Lesion: KIDNEY); “active; positive” (Species: HAMSTER, Strain/Sex: SYRIAN/MALE, Route: SUBCUTANEOUS IMPLANT, Dose: 0, 20 MG IN PELLETS IMPLANTED EVERY 2.5 MO FOR 9 MO (STUDY DURATION: 9 MO), Tumor Site: Type of Lesion: KIDNEY: TUMOR); “active; positive” (Species: MOUSE, Route: ORAL, SUBCUTANEOUS IMPLANT, Tumor Site: Type of Lesion: CERVIX, THYMUS GLAND, MAMMARY GLAND, UTERUS, VAGINA, Tumor Site: Type of Lesion: CERVIX, THYMUS GLAND, MAMMARY GLAND, UTERUS, VAGINA); “active; positive” (Species: MOUSE, Route: SUBCUTANEOUS, Tumor Site: Type of Lesion: LYMPHATIC SYSTEM); “active; positive” (Species: MOUSE, Strain/Sex: BALB/CCRGL/FEMALE, Route: SUBCUTANEOUS, Dose: 5 UG DAILY FOR 5 D BEGINNING 16 HR AFTER BIRTH (STUDY DURATION: 20 MO), Tumor Site: Type of Lesion: CERVICOVAGINAL TRACT: CARCINOMA (16/37)). The carcinogen call (Species: RAT, Route: SUBCUTANEOUS IMPLANT, Tumor Site: Type of Lesion: MAMMARY GLAND, PITUITARY GLAND) was “active; positive”.
